Data published in patent US7241439B2, “Biopesticide compositions” (Faculte Universitaire des Sciences Agronomiques de Gembloux, priority 2001, dated 2007).
Counter-ions that a name gives are not always drawn.

Tests used:
B. cinerea = experiment: Protection of wounded apples against postharvest rot (lesion diameter); assay type: in vivo
Description: (§1) Apples (Malus domestics Borkh cv. Golden) were harvested from commercial orchards maintained with standard cultural practices in Belgium and placed in regular long term storage. Commercial class I fruits were used. They were bought from wholesale dealers and stored in a cold room at 4±1° C. for maximum 15 days before use.
(§2) B. cinerea (grey mould) and Penicillium expansum (blue mould) strains were initially isolated from strawberries and apples respectively in Gembloux.
(§3) Conidia from the two pathogenic strains were put in suspension in a glycerol solution (25%) and stored at −70° C. Another storage method consisted of growing the pathogen on Potato Dextrose Agar (PDA) in tubes, covering it then by paraffin oil and keeping the tubes at 25° C. Starting from this stored material, the two fungal strains were transferred to oat medium at 25° C. Conidial suspensions were prepared in an aqueous sterile solution of Tween 20 (0.05%), and were adjusted to the required concentration (10^6 spores/ml) using a Bärker cell.
(§4) Before use, the micro-organisms were subcultured three times successively at 24 hours intervals on PDA (Potato Dextrose Agar). At the third generation, yeast cells were removed from the culture medium and suspended in isotonic water (NaCl 0.85%). Suspension concentrations were adjusted to the required values after the establishment of a regression line in relation with the micro-organisms suspension absorbance (at 595 nm) and the number of colony forming units (cfu) of the same suspension spread onto PDA.
(§5) Fruits were disinfected by dipping for 2 minutes in sodium hypochlorite (10% of the commercial product). They were rinsed in sterile water and dried out under laminar flux before being wounded by removing 6 mm diameter and 3 mm deep blocks of tissue from two sites 4-5 cm apart along the equatorial line of the fruits.
(§6) The wounds were treated by application of 50 μl of compositions of the state of the art or compositions of the invention.
(§7) After a 24 h at 20° C. incubation period in plastic boxes, the wounds have been inoculated with 50 μl of the respective conidial suspensions of the pathogens. The fruits were incubated during one to three weeks at 25° C.
The diameters of the lesions developing around the wounds were measured after 7, 10, 14 and up to 20 days after treatment. Four fruits (8 wounds) were used per treatment.
(§8) The percentage of protection provided by the different treatments is calculated from the diameter of lesion caused by the fruit rot agent after the incubation time using the following formula:
(§9) [formula] where Y is the percentage of protection; DT is the mean diameter of lesions for the untreated control and Dx is the mean diameter of lesions for the treated fruits.
(§10) Vegetal material, pathogens, antagonistic micro-organisms and treatment method were as in example 1. The wounds were treated by application of 50 pi of compositions of the state of the art or compositions of the invention. The effect of the compositions against postharvest apple rots caused by B. cinerea has been evaluated under controlled conditions.

P. expansum = experiment: as above; assay type: in vivo, Penicillium expansum
Description: as §1, §2, §3, §4, §5, §6, §7
[…] Four fruits (8 wounds) were used per treatment.
as §8, §9, §10

P. digitatum = experiment: Protection of wounded oranges against green mould; assay type: in vivo, Penicillium digitatum strain CBS31948; settings: Table 7, GA 0.01% w/v
Description: Oranges (Citrus sinensis (L.) Ohl. cv. Valencia) were bought from wholesale dealers and stored in a cold room at 4±1° C. for maximum 15 days before use.
Penicillium digitatum strain CBS31948 (green mould of oranges) was obtained from the CentraalBureau Schimmelcultures, Netherlands collection and initially isolated from Citrus fruits. Conidia from the pathogenic strain were put in suspension in a glycerol solution (25%) and stored at −70° C. Starting from this stored material, the fungal strain was transferred to oat medium at 25° C. Conidial suspensions were prepared in an aqueous sterile solution of Tween 20 (0.05%). Before use, suspensions have been adjusted to the required concentration (10^5 spores/ml) using a Barker cell.
The antagonistic yeast strain P. anomala “strain K” was obtained as in example 1. C. oleophila strain I-182 commercialised under the name Aspire™ was obtained from Ecogen Inc. Both microorganisms were subcultured as in example 1.
Fruits were disinfected and wounded as in example 1. […] The percentage of protection is calculated as in example 1.
Vegetal material, pathogens, antagonistic agents and treatment method were as in example 3. […] The effect of the compositions against postharvest rots caused by P. digitatum has been evaluated under controlled conditions.

[1] = Table 12, M (mannans) 0.02% w/v

With `O.O=C[C@H](O)[C@@H](O)[C@@H](O)[C@H](O)C(=O)O` [GA, galacturonic acid (monohydrate)] the “% protection against B. cinerea after 7 days” value (B. cinerea; Table 1, GA 0.01% w/v) was 49%, the “% protection against B. cinerea after 10 days” value (B. cinerea; Table 1, GA 0.01% w/v) was 42% and the “% protection against B. cinerea after 14 days” value (shortened to “% protection … after 14 days”) (B. cinerea; Table 1, GA 0.01% w/v) was 22%. For the same molecule, the “% protection against B. cinerea after 20 days” value (“% protection … after 20 days” below) (B. cinerea; Table 1, GA 0.01% w/v) was 2%, the “% protection against B. cinerea after 7 days” value (B. cinerea; Table 2, GA 0.001% w/v) was 87% and the “% protection against B. cinerea after 10 days” value (B. cinerea; Table 2, GA 0.001% w/v) was 47%. For the same molecule, the “% protection … after 14 days” value (B. cinerea; Table 2, GA 0.001% w/v) was 33%, the “% protection … after 20 days” value (B. cinerea; Table 2, GA 0.001% w/v) was 0% and the “% protection against B. cinerea after 7 days” value (B. cinerea; Table 3, GA 0.01% w/v) was 12%. For the same molecule, the “% protection against B. cinerea after 7 days” value (B. cinerea; Table 13, GA 0.001% w/v) was 87%, the “% protection against B. cinerea after 10 days” value (B. cinerea; Table 13, GA 0.001% w/v) was 47% and the “% protection … after 14 days” value (B. cinerea; Table 13, GA 0.001% w/v) was 33%. The “% protection … after 20 days” value (B. cinerea; Table 13, GA 0.001% w/v) was 0%, the “% protection against P. expansum After 7 days” value (P. expansum; Table 3, GA 0.01% w/v) was 18% and the “% protection against P. expansum after 6 days” value (P. expansum; Table 4, GA 0.001% w/v) was 15%. The “% protection against P. expansum after 8 days” value (P. expansum; Table 4, GA 0.001% w/v) was 9%, the “% protection against P. expansum after 10 days” value (P. expansum; Table 4, GA 0.001% w/v) was 7% and the “% protection against P. digitatum after 7 days” value (P. digitatum) was 58%. The “% protection against P. digitatum after 10 days” value (P. digitatum) was 36%.
`O=C[C@H](O)[C@@H](O)[C@H](O)[C@H](O)C(=O)O` [GU, glucuronic acid (sodium salt)] was tested, and the “% protection against B. cinerea after 7 days” value (B. cinerea; Table 1, GU 0.001% w/v) was 75%, the “% protection against B. cinerea after 10 days” value (B. cinerea; Table 1, GU 0.001% w/v) was 46% and the “% protection … after 14 days” value (B. cinerea; Table 1, GU 0.001% w/v) was 46%. For the same molecule, the “% protection … after 20 days” value (B. cinerea; Table 1, GU 0.001% w/v) was 21%, the “% protection against B. cinerea after 7 days” value (B. cinerea; Table 2, GU 0.001% w/v) was 75% and the “% protection against B. cinerea after 10 days” value (B. cinerea; Table 2, GU 0.001% w/v) was 46%. For the same molecule, the “% protection … after 14 days” value (B. cinerea; Table 2, GU 0.001% w/v) was 46% and the “% protection … after 20 days” value (B. cinerea; Table 2, GU 0.001% w/v) was 21%.
With mannans the “% protection against B. cinerea after 7 days” value (B. cinerea; [1]) was 100%, the “% protection against B. cinerea after 10 days” value (B. cinerea; [1]) was 78% and the “% protection … after 14 days” value (B. cinerea; [1]) was 55%. The “% protection … after 20 days” value (B. cinerea; [1]) was 16%, the “% protection against B. cinerea after 7 days” value (B. cinerea; Table 12, M (mannans) 0.2% w/v) was 100% and the “% protection against B. cinerea after 10 days” value (B. cinerea; Table 12, M (mannans) 0.2% w/v) was 93%. For the same molecule, the “% protection … after 14 days” value (B. cinerea; Table 12, M (mannans) 0.2% w/v) was 68%, the “% protection … after 20 days” value (B. cinerea; Table 12, M (mannans) 0.2% w/v) was 26% and the “% protection against B. cinerea after 7 days” value (B. cinerea; Table 13, M 0.02% w/v) was 100%. The “% protection against B. cinerea after 10 days” value (B. cinerea; Table 13, M 0.02% w/v) was 78%, the “% protection … after 14 days” value (B. cinerea; Table 13, M 0.02% w/v) was 55% and the “% protection … after 20 days” value (B. cinerea; Table 13, M 0.02% w/v) was 16%. For the same molecule, the “% protection against B. cinerea after 7 days” value (B. cinerea; Table 13, M 0.2% w/v) was 100%, the “% protection against B. cinerea after 10 days” value (B. cinerea; Table 13, M 0.2% w/v) was 93% and the “% protection … after 14 days” value (B. cinerea; Table 13, M 0.2% w/v) was 68%. For the same molecule, the “% protection … after 20 days” value (B. cinerea; Table 13, M 0.2% w/v) was 28%.
In the case of “polygalacturonic acid [PGA, reference compound]”, the “% protection against P. expansum after 6 days” value (P. expansum; Table 4, PGA 0.001% w/v) was 19%, the “% protection against P. expansum after 8 days” value (P. expansum; Table 4, PGA 0.001% w/v) was 12% and the “% protection against P. expansum after 10 days” value (P. expansum; Table 4, PGA 0.001% w/v) was 10%.
